For orientation: Emax means the maximal effect, on the per cent scale that the assay sets. By EC50 is commonly meant the midpoint of the concentration-response curve.

This is an account of results in patent US20250230155A1 (Vanderbilt University, priority 2021, published 2025).

For this assay, the target named is T1, human mAChR M4 (Homo sapiens, UniProt P08173).
T1 construct: expressed in transfected cells
T1 sequence (P08173 1-479): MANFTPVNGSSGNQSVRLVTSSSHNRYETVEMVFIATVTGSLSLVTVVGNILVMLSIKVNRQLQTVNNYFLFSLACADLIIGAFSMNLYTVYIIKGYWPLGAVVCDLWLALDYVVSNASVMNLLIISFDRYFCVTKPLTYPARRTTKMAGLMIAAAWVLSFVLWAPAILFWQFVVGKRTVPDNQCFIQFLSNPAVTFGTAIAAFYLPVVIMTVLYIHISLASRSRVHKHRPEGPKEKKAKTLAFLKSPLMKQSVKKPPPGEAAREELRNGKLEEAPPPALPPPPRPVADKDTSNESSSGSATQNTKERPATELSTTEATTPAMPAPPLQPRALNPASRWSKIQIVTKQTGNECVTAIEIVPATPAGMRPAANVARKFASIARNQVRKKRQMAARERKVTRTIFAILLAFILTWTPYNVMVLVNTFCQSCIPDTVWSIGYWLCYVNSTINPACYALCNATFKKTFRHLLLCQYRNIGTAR
As to the kind of experiment: mAChR M4 cell-based functional assay (calcium mobilization, CHO-K1 hM4-Gqi5 cells). The settings on record: for Emax at 30 µM: CHO-K1, % ACh maximum at 30 μM, human M4; for EC50: positive allosteric modulator activity, increase in the EC20 acetylcholine response, CHO-K1 hM4-Gqi5 cells, read-out: Human M4 EC50. Put shortly: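 Fluorescent calcium read-out (Fluo-4 AM, FDSS, 1 Hz) in hM4-Gqi5 CHO-K1 cells, 11-point 1:3 compound series. Agonism scored on compound addition, PAM activity as increase of the 144 s EC20 acetylcholine response, antagonism as decrease of the 230 s EC80 response; four-parameter logistic fits give EC50 and Emax.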

For the molecule `Cc1c(C#N)nnc(N2CCc3ncc(-c4ccns4)cc3C2)c1C` [compound 292, 6-(3-(isothiazol-5-yl)-7,8-dihydro-1,6-naphthyridin-6(5H)-yl)-4,5-dimethylpyridazine-3-carbonitrile], the Emax at 30 µM came to 86% and the EC50 is 0.163 µM.

Regarding `Cc1ncc(-c2cnc3c(c2)CN(c2nnc(C#N)c(C)c2C)CC3)s1` [compound 293, 4,5-dimethyl-6-(3-(2-methylthiazol-5-yl)-7,8-dihydro-1,6-naphthyridin-6(5H)-yl)pyridazine-3-carbonitrile], the Emax at 30 µM was 85% and the EC50 was found to be 0.354 µM.

Regarding `Cc1nc(C)c(-c2cnc3c(c2)CN(c2nnc(C#N)c(C)c2C)CC3)s1` [compound 294, 6-(3-(2,4-dimethylthiazol-5-yl)-7,8-dihydro-1,6-naphthyridin-6(5H)-yl)-4,5-dimethylpyridazine-3-carbonitrile], the maximal effect (Emax) at 30 µM turned out to be 83% and the half-maximal effective concentration (EC50) is 0.292 µM.

On to `Cc1nn(C)cc1-c1cnc2c(c1)CN(c1nnc(C#N)c(C)c1C)CC2` [compound 295, 6-(3-(1,3-dimethyl-1H-pyrazol-4-yl)-7,8-dihydro-1,6-naphthyridin-6(5H)-yl)-4,5-dimethylpyridazine-3-carbonitrile], for which the Emax at 30 µM turned out to be 95% and the EC50 was 0.485 µM.
